Test system: NR1I2 gene
Assay: RT-PCR of NR1I2 messenger RNA in 8 neuroblastoma cell lines cultured with 5-aza-dCyd
Format: cell-based, human
Conditions: 8 neuroblastoma cell lines lacking NR1I2 mRNA; 1 μM for 5 days
From the text: Cell lines used were human-derived neuroblastoma cells SK-N-KS, SK-N-AS, SK-N-SH, SK-N-DZ, SH-SY5Y, MP-N-TS, MP-N-MS, KP-N-RT, KP-N-SIFA, KP-N-SILA, KP-N-TK, KP-N-YS, SMS-KCN, SMS-KAN, SJ-N-CG, NB-1, CHP134, IMR32, and GOTO (Saito-Ohara F, et al. Cancer Res., 63, 1876, 2003), which were derived from […] surgically excised samples. In addition, in order to obtain a material subjected to inhibition of DNA methylation, 5-aza-deoxycytidine (5-aza-dCyd) serving a DNA methyltransferase inhibitor was added to each cell at a concentration of 1 μM for 5 days during culture.
Under general culture conditions, 8 neuroblastoma cell lines lacking the expression of messenger RNA of NR1I2 gene were cultured with the addition of 5-aza-deoxycytidine (5-aza-dCyd) serving as a DNA methyltransferase inhibitor at a concentration of 1 μM for 5 days. The expression levels of messenger RNA of NR1I2 gene in the cells were compared with each other by RT-PCR (FIG. 4). As a control for the expression level obtained by RT-PCR, GAPDH was used.

## Nc1ncn([C@H]2C[C@H](O)[C@@H](CO)O2)c(=O)n1 [5-aza-dCyd, 5-aza-deoxycytidine]
  expression of messenger RNA of NR1I2 gene: expression of messenger RNA of NR1I2 genes was observed

Source: patent publication US20090011424A1, “Cancer-suppressing agents” (Tokyo Medical and Dental University, priority 2005, published 2009)
